Measurements from patent publication US12528818B2, “Compositions and methods for inhibition of RAS” (Leidos Biomedical Research, Inc., priority 2021, dated 2026).

System: pERK in NCI-H358 cells
Test: Cell-based pERK HTRF assay (pERK inhibition in H358 cells)
Conditions: Homo sapiens, NCI-H358, 0.5 h, pERK inhibition IC50, NCI-H358 cells, 30 min incubation; read-out: PERK in H358 cell
Experimental: On Day 1, cells (NCI-H358) were seeded into 96-well plates at 4×10^4 cells/well in complete growth media (RPMI, 10% FBS).
The source plate was created with compounds diluted in media at 5-fold the final assay concentration. […] 20 μL was transferred onto the cell plates (final volume in wells was 100 μL). Plates were harvested after 30 min incubation by aspirating media and adding kit-supplied 1× supplemented lysis buffer to all wells (75 μl per well). Plates were then placed on a plate shaker and incubated at 850 rpm for an additional 30 min.
Antibody mixture solution was prepared by diluting aliquoted d2 and Eu Cryptate antibodies 1:20 in kit supplied detection buffer, then mixed the diluted antibodies solutions (1:1 v:v).
Samples were homogenized by pipetting up and down and then transferred (16 μL of cell lysates) from the 96-well cell culture plate to two wells of the HTRF 384-well detection plate containing the antibody solution. Plates were centrifuged (524 g for 1 min) and allowed to incubate between 4 and 24 h at room temperature. Maximum signal is reached after 4 h incubation time and remains stable over a period of 24 hours. Therefore, readings can be made between 4 and 24 h of incubation.

Row | Compound | IC50 [µM]
1 | C=CC(=O)N1C[C@H](N(C)c2nc(OC[C@@]34CCCN3C[C@H](F)C4)nc3c(F)c(-c4ccc(F)c5sc(N)nc45)c(C(F)(F)F)cc23)C2(CC2)C1 [Compound 294] | < 0.1
2 | C=CC(=O)N1CC(N(C)c2nc(OC[C@@H]3CC(F)(F)CN3C)nc3c(F)c(-c4ccc(F)c5sc(N)nc45)c(C(F)(F)F)cc23)C1 [Compound 181] | > 1
3 | C=CC(=O)N1CC(Nc2nc(OC[C@@H]3C[C@@H](F)CN3C)nc3c(F)c(-c4ccc(F)c5sc(N)nc45)c(Cl)cc23)C1 [Compound 63] | 0.1 to 1
4 | C=CC(=O)N1CC(N(C)c2nc(OC[C@]34CCCN3C[C@H](F)C4)nc3c(F)c(-c4ccc(F)c5sc(N)nc45)c(Cl)cc23)C1 [Compound 169] | 0.1 to 1
5 | C=CC(=O)N1CC[C@@H](N(C)c2nc(OC[C@@H]3CCCN3C)nc3c(F)c(-c4ccc(F)c5sc(N)nc45)c(C(F)(F)F)cc23)C1 [Compound 230] | 0.1 to 1
6 | C=CC(=O)N1CC[C@@H](N(C)c2nc(OC[C@@]34CCCN3C[C@H](F)C4)nc3cc(-c4ccc(F)c5sc(N)nc45)c(C(F)(F)F)cc23)C1 [Compound 300] | < 0.1
7 | C=CC(=O)N1C[C@@H](F)[C@@H](N(C)c2nc(OCC34CCCN3CCC4)nc3cc(-c4ccc(F)c5sc(N)c(C#N)c45)c(C(F)(F)F)cc23)C1 [Compound 369] | < 0.1
8 | C=CC(=O)N1CCN(c2ncnc3c(F)c(-c4ccc(F)c5sc(N)nc45)c(C4CCC4)cc23)CC1 [Compound 122] | > 1
9 | C=C(F)C(=O)N1C[C@H](C)N(c2nc(OC[C@]34CCCN3C[C@H](F)C4)nc3c(F)c(-c4ccc(F)c5sc(N)nc45)c(C(F)(F)F)cc23)C[C@H]1C [Compound 205] | 0.1 to 1
10 | C=CC(=O)N1C[C@@H](F)[C@@H](N(C)c2nc(OC[C@@]34CCCN3C[C@H](F)C4)nc3cc(-c4ccc(F)c5sc(N)c(C#N)c45)c(C(F)(F)F)cc23)C1 [Compound 315, 4-(4-(((3S,4R)-1-acryloyl-4-fluoropyrrolidin-3-yl)(methyl)amino)-2-(((2R,7aS)-2-fluorotetrahydro-1H-pyrrolizin-7a(5H)-yl)methoxy)-6-(trifluoromethyl)quinazolin-7-yl)-2-amino-7-fluorobenzo[b]thiophene-3-carbonitrile] | < 0.1
11 | C=CC(=O)N1C[C@H](C)N(c2nc(OC[C@@H]3C[C@@H](OC)CN3C)nc3c(F)c(-c4ccc(F)c5sc(N)c(C#N)c45)c(C(F)(F)F)cc23)C[C@H]1C [Compound 408] | < 0.1
12 | C=CC(=O)N1CCC(N(C)c2nc(OC[C@@]34CCCN3C[C@H](F)C4)nc3c(F)c(-c4ccc(F)c5sc(N)c(C#N)c45)ccc23)[C@H]1COC (some centres unmarked) [Compound 402] | < 0.1
13 | C=CC(=O)N1CCC(N(C)c2nc(OC[C@@H]3C[C@@H](F)CN3C)nc3cc(-c4ccc(F)c5sc(N)c(C#N)c45)c(C#N)cc23)[C@H]1COC (some centres unmarked) [Compound 444] | < 0.1
14 | C=CC(=O)N1C[C@H](N(C)c2ncnc3c(F)c(-c4ccc(F)c5sc(N)nc45)c(C(F)(F)F)cc23)C2(CC2)C1 (atropisomer, axis not shown) [Compound 263] | > 1
15 | C=CC(=O)N1C[C@H](N(C)c2nc(OC[C@@]34CCCN3C[C@H](F)C4)nc3cc(-c4ccc(F)c5sc(N)nc45)c(C(F)(F)F)cc23)C[C@H]1C [Compound 309] | < 0.1
16 | C=CC(=O)N1CC[C@@H](N(C)c2nc(OCC34CCCN3CCC4)nc3c(F)c(-c4c(O)cccc4F)c(C(F)(F)F)cc23)C1 [Compound 227] | > 1
17 | C=CC(=O)N1CCN(c2nc(OCC34CCCN3CC(C)(C)C4)nc3c(F)c(-c4ccc(F)c5sc(N)nc45)c(C(F)(F)F)cc23)CC1 (centres unmarked) [Compound 171, 1-(4-(7-(2-amino-7-fluorobenzo[d]thiazol-4-yl)-2-((2,2-dimethyltetrahydro-1H-pyrrolizin-7a(5H)-yl)methoxy)-8-fluoro-6-(trifluoromethyl)quinazolin-4-yl)piperazin-1-yl)prop-2-en-1-one] | < 0.1
18 | C=CC(=O)N1CCC(N(C)c2nc(OC[C@@H]3C[C@@H](F)CN3C)nc3c(F)c(-c4ccc(F)c5sc(N)c(C#N)c45)c(C(F)(F)F)cc23)[C@H]1COC (some centres unmarked) [Compound 443] | < 0.1
19 | C=CC(=O)N1CC(N(C)c2nc(OC[C@@]34CCCN3C[C@H](F)C4)nc3c(F)c(-c4ccc(F)c5sc(N)nc45)c(C(F)(F)F)cc23)C1 [Compound 223] | < 0.1

Row | Compound | IC50 [µM]
20 | CN1CCC[C@H]1COc1nc(NC2CCCN(C#N)C2)c2cc(Cl)c(-c3ccc(F)c4sc(N)nc34)c(F)c2n1 (some centres unmarked) [Compound 53] | > 1
21 | C=CC(=O)N1CCC(N(C)c2nc(OC[C@@H]3C[C@@H](F)CN3C)nc3c(F)c(-c4ccc(F)c5sc(N)c(C#N)c45)c(C(F)(F)F)cc23)[C@H]1C (some centres unmarked) [Compound 399] | < 0.1
22 | C=CC(=O)N1CCC(N(C)c2nc(OC[C@@H]3CCCN3C)nc3cc(-c4ccc(F)c5sc(N)c(C#N)c45)c(F)cc23)[C@H]1COC (some centres unmarked) [Compound 441] | 0.1 to 1
23 | C=CC(=O)N1C[C@H](N(C)c2nc(OC[C@@]34CCCN3C[C@H](F)C4)nc3c(F)c(-c4ccc(F)c5sc(N)nc45)c(C(F)(F)F)cc23)C[C@H]1C [Compound 274] | < 0.1
24 | C=CC(=O)N1C[C@H](C)N(c2nc(OC[C@@]34CCCN3C[C@H](F)C4)nc3cc(-c4c(F)cc(F)c5sc(N)nc45)c(C(F)(F)F)cc23)C[C@H]1C [Compound 298, 1-((2R,5S)-4-(7-(2-amino-5,7-difluorobenzo[d]thiazol-4-yl)-2-(((2R,7aS)-2-fluorotetrahydro-1H-pyrrolizin-7a(5H)-yl)methoxy)-6-(trifluoromethyl)quinazolin-4-yl)-2,5-dimethylpiperazin-1-yl)prop-2-en-1-one] | < 0.1
25 | C=CC(=O)N1CC[C@@H]2[C@H]1CN2c1nc(OC[C@@H]2C[C@@H](F)CN2C)nc2c(F)c(-c3ccc(F)c4sc(N)nc34)c(Cl)cc12 [Compound 89] | < 0.1
26 | C=CC(=O)N1CC[C@@H](N(C)c2nc(OC[C@@]34CCCN3C[C@H](F)C4)nc3c(F)c(-c4ccc(F)c5sc(N)nc45)c(C(F)(F)F)cc23)C1 [Compound 198] | < 0.1
27 | C=C(F)C(=O)N1C[C@H](C)N(c2nc(OC[C@@]34CCCN3C[C@H](F)C4)nc3c(F)c(-c4ccc(F)c5sc(N)nc45)c(C(F)(F)F)cc23)C[C@H]1C [Compound 203] | 0.1 to 1
28 | C=CC(=O)N1CCC(N(CC)c2nc(OC[C@@H]3C[C@@H](OC)CN3C)nc3c(F)c(-c4ccc(F)c5sc(N)c(C#N)c45)c(C(F)(F)F)cc23)[C@H]1C (some centres unmarked) [Compound 392] | < 0.1
29 | C=CC(=O)N1C[C@H](C)N(c2nc(OC[C@@]34CCCN3C[C@H](F)C4)nc3c(F)c(-c4ccc(F)c5sc(N)c(C#N)c45)c(C(F)(F)F)cc23)C[C@H]1C [Compound 252, 4-(4-((2S,5R)-4-acryloyl-2,5-dimethylpiperazin-1-yl)-8-fluoro-2-(((2R,7aS)-2-fluorotetrahydro-1H-pyrrolizin-7a(5H)-yl)methoxy)-6-(trifluoromethyl)quinazolin-7-yl)-2-amino-7-fluorobenzo[b]thiophene-3-carbonitrile] | < 0.1
30 | C=CC(=O)N1CCC(N(C)c2nc(OC[C@@H]3CCCN3C)nc3c(F)c(-c4ccc(F)c5sc(N)c(C#N)c45)ccc23)[C@H]1COC (some centres unmarked) [Compound 432] | 0.1 to 1
31 | C=CC(=O)N1CCN(c2nc(OC[C@@]34CCCN3C[C@@H](F)C4)nc3c(F)c(-c4ccc(F)c5sc(N)nc45)c(C(F)(F)F)cc23)[C@H](C)C1 [Compound 217] | 0.1 to 1
32 | CN1CCC[C@H]1COc1nc(NC2CCN(C#N)C2)c2cc(Cl)c(-c3ccc(F)c4sc(N)nc34)c(F)c2n1 (some centres unmarked) [Compound 51] | 0.1 to 1
33 | C=CC(=O)N1C[C@H](C)N(c2nc(OC[C@@H]3C[C@@H](F)CN3C)nc3c(F)c(-c4ccc(F)c5sc(N)c(C#N)c45)c(C(F)(F)F)cc23)C[C@H]1C [Compound 406] | < 0.1
34 | CC#CC(=O)N1CC(N(C)c2nc(OC[C@@H]3CCCN3C)nc3c(F)c(-c4ccc(F)c5sc(N)nc45)c(C(F)(F)F)cc23)C1 [Compound 129] | 0.1 to 1
35 | C=CC(=O)N1CC[C@@H](N(C)c2nc(OC[C@@]34CCCN3C[C@H](F)C4)nc3c(F)c(-c4ccc(F)c5sc(N)c(C#N)c45)c(C(F)(F)F)cc23)[C@H]1COC [Compound 401] | < 0.1
36 | C=CC(=O)N1CCN(c2nc(OC[C@@]34CCCN3C[C@H](F)C4)nc3c(F)c(-c4ccc(F)c5sc(N)c(C#N)c45)c(C(F)(F)F)cc23)C[C@@H]1C [Compound 329] | < 0.1
37 | C=CC(=O)N1CC[C@@H](N(C)c2nc(OC)nc3c(F)c(-c4ccc(F)c5sc(N)c(C#N)c45)c(C(F)(F)F)cc23)C1 [Compound 384] | < 0.1

Same assay, conditions: pERK inhibition IC50, NCI-H358 cells, 30 min incubation; read-out: PERK in H358 cell

Row | Compound | IC50 [µM]
38 | C=CC(=O)N1CCC[C@@H](N(C)c2nc(OC[C@@]34CCCN3C[C@H](F)C4)nc3c(F)c(-c4ccc(F)c5sc(N)nc45)c(C(F)(F)F)cc23)C1 [Compound 244] | < 0.1
39 | C=CC(=O)N1CC[C@@H](N(C)c2nc(OC[C@@H]3CC(F)(F)CN3C)nc3c(F)c(-c4ccc(F)c5sc(N)nc45)c(C(F)(F)F)cc23)C1 (atropisomer, axis not shown) [Compound 229] | > 1
40 | C=CC(=O)N1CC[C@@H](N(C)c2nc(OC[C@@]34CCCN3C[C@H](F)C4)nc3c(F)c(-c4ccc(F)c5sc(N)c(C#N)c45)c(C(F)(F)F)cc23)[C@H]1C (single isomer, unassigned) [Compound 434] | < 0.1
41 | C=CC(=O)N1CC[C@@H](Nc2nc(OC[C@@]34CCCN3C[C@H](F)C4)nc3c(F)c(-c4ccc(F)c5sc(N)nc45)c(C(F)(F)F)cc23)C1 (single isomer, unassigned) [Compound 272] | > 1
